Laboratory results from patent US12678423B2, “Therapeutic agent for amyotrophic lateral sclerosis and composition for treatment” (KEIO UNIVERSITY, priority 2016, dated 2026).

What was measured:
Format in all cases: cell-based, human
[1] = tested on: motor neurons induced to differentiate from iPS cells derived from ALS patients (TDP-43-ALS) having a mutation in TDP-43; experiment: Phosphorylated TDP-43 protein inclusion formation, TDP-43-ALS motor neurons
Text: Therefore, on day 40 from the start of differentiation induction, each differentiation-induced motor neuron in Example I-1 was immunostained and the formation of phosphorylated TDP-43 protein inclusions was examined.
Using the differentiation-induced motor neurons in Example I-1, drugs which cause the ALS phenotype to be restored were screened from existing drug libraries with the neurite length, ectopic localization of FUS protein, stress granule formation, LDH leakage ratio, CV-caspase 3-positive ratio, phosphorylated TDP-43 protein inclusion formation, and the like as indices.
As a result of the screening, ropinirole was found as a promising therapeutic agent for ALS. Tables 5 and 6 show the improvement ratio (%) in the ALS phenotype due to adding ropinirole to the medium. Here, ropinirole was added to the medium on days 35 to 40 from the start of the differentiation induction of each iPS cell. Here, it is assumed that days 35 to 40 from the start of differentiation induction correspond to the early stage of the ALS disease.
(§1) The improvement ratio (%) of the ALS phenotype was calculated by Equation (1).
(§2) [formula] [In Equation (1), A represents a measurement value of motor neurons induced to differentiate from iPS cells derived from ALS patients in the absence of ropinirole, and B represents a measurement value of motor neurons induced to differentiate from iPS cells derived from ALS patients in the presence of ropinirole, and C represents a measurement value of motor neurons induced to differentiate from iPS cells derived from healthy subjects in the absence of ropinirole.]
(§3) Subsequently, in the same manner as above, the efficacy in cases of administering lower concentrations of ropinirole was evaluated.
(§4) Each drug was added to the medium at a final concentration of 10 μM.

[2] = tested on: motor neurons induced to differentiate from iPS cells derived from SALS patients; experiment: Neurite length, sporadic ALS model (Example III-1); conditions: final concentration 1 μM, days 35 to 40, measured on day 40, FIG. 10
Text: (§5) In the same manner as in Example I-1, iPS cells derived from sporadic ALS (may be referred to below as “SALS”) patients were differentiated into motor neurons. All the iPS cells used were derived from dermal fibroblasts. Below, each differentiated motor neuron is identified by the patient number from whom the neuron was derived.
(§6) In the same manner as in Example II-1, iPS cells derived from sporadic ALS (SALS) patients were induced to differentiate into motor neurons, and then ropinirole with a final concentration of 1 μM was added to the medium. More specifically, for the period of days 35 to 40 from the start of differentiation induction, ropinirole having a final concentration of 1 μM was added to the medium. In addition, a group for which ropinirole was not added to the medium was prepared as a control. In addition, for comparison, iPS cells derived from healthy subjects were differentiated into motor neurons in the same manner as in Example I-1. No ropinirole was added to the medium of these motor neurons. As the iPS cells derived from a healthy subject, the same cells as used in Example I-1 were used.
Subsequently, on day 40 from the start of differentiation induction, the neurite length was measured for each motor neuron in the same manner as in Example I-2.
FIG. 10 is a graph showing measurement results of the neurite length of each motor neuron. […]

[3] = tested on: motor neurons induced to differentiate from iPS cells derived from SALS patients; experiment: CV caspase 3-positive ratio, sporadic ALS model (Example III-2); conditions: final concentration 1 μM, days 35 to 40, measured on day 40, FIG. 11
Text: as §5, §6
Subsequently, on day 40 from the start of differentiation induction, the ratio of CV caspase 3-positive neurons was measured for each motor neuron in the same manner as in Example I-3.
FIG. 11 is a graph showing the measurement results of the ratio of CV caspase 3-positive neurons. […]

[4] = tested on: motor neurons induced to differentiate from iPS cells derived from SALS patients; experiment: LDH leakage ratio, sporadic ALS model (Example III-3); conditions: final concentration 1 μM, days 35 to 40, measured on day 40, FIG. 12
Text: as §5, §6
Subsequently, on day 40 from the start of differentiation induction, the LDH leakage ratio was measured for each motor neuron in the same manner as in Example I-4.
FIG. 12 is a graph showing the measurement result of the LDH leakage ratio. […]

[5] = tested on: motor neurons induced to differentiate from iPS cells derived from ALS patients (TDP-43-ALS) having a mutation in TDP-43; experiment: LDH leakage ratio, TDP-43-ALS motor neurons
Method: The leakage amount of LDH into the medium is an indicator of cytotoxicity. For measurement of the LDH leakage ratio, a commercially available kit (model “LDH Cytotoxicity Detection Kit”, Takara Bio Inc.) was used.
Here, ropinirole was added to the medium on days 35 to 40 from the start of the differentiation induction of each iPS cell. Here, it is assumed that days 35 to 40 from the start of differentiation induction correspond to the early stage of the ALS disease.
as §1, §2, §3, §4

[6] = final concentration 0.1 μM, added days 35 to 40
[7] = final concentration 1 μM, added days 35 to 40
[8] = final concentration 10 μM, added days 35 to 40

## CCCN(CCC)CCc1cccc2c1CC(=O)N2 [Ropinirole, 4-(2-di-n-propylaminoethyl)-2(3H)-indole]
[1]; final concentration 0.1 nM
  TDP-43 inclusion formation improvement ratio: 15.3%
[1]; final concentration 1 nM
  TDP-43 inclusion formation improvement ratio: 55.3%
[1]; final concentration 10 nM
  TDP-43 inclusion formation improvement ratio: 60.3%
[1]; [6]
  TDP-43 inclusion formation improvement ratio: 56.2%
[1]; [7]
  TDP-43 inclusion formation improvement ratio: 69.2%
[1]; [8]
  TDP-43 inclusion formation improvement ratio: 74.2%
[2]
  Neurite length reduction: significantly suppressed
[3]
  Ratio of CV caspase 3-positive neurons: significantly reduced
[4]
  LDH leakage ratio: significantly decreased
[5]; final concentration 0.1 nM
  LDH leakage ratio improvement ratio: 10.2%
[5]; final concentration 1 nM
  LDH leakage ratio improvement ratio: 55.2%
[5]; final concentration 10 nM
  LDH leakage ratio improvement ratio: 56.6%
[5]; [6]
  LDH leakage ratio improvement ratio: 58.3%
[5]; [7]
  LDH leakage ratio improvement ratio: 78.1%
[5]; [8]
  LDH leakage ratio improvement ratio: 82.4%
